Drawing on DBAASP, this text covers MIC for 6 compounds.

Some test systems named below: Aspergillus niger; Penicillium expansum; Escherichia coli ML-35p; Acinetobacter baumannii; Escherichia coli C600.
What all share (assay): ≥ marks a high value that may be exact or a test limit, other limits are often not marked, values filed in µg/mL are converted to µM
The test system of test [1] is Bacillus subtilis KCTC 3068.
Test [2] has as its system Enterococcus faecalis ATCC 51575.
The test system of test [3] is Pseudomonas aeruginosa KCTC 1637.
For test [4], the system named is Enterococcus faecalis KCCM 29212.
The subject of test [5] is Enterococcus faecium ATCC 51559.
For test [6], the system named is Staphylococcus aureus KCCM 40510.
In test [7] the test system is Staphylococcus epidermidis KCTC 1917.
For test [8], the system named is Staphylococcus aureus KCTC 1621.
Test [9] has as its system Salmonella typhimurium KCTC 1926.
Test [10] relates to Escherichia coli KCTC 1682.
For test [11], the system named is Enterococcus faecium KCCM 12118.
Test [12] deals with Klebsiella oxytoca ATCC 13182.
For test [13], the system named is Serratia marcescens ATCC 13880.
The subject of test [14] is Klebsiella pneumoniae ATCC 700603.
In test [15] the test system is Staphylococcus aureus ATCC 80958.
Test [16] concerns Escherichia coli ATCC 35218.
The test system of test [17] is Escherichia coli CCARM 1229.
The subject of test [18] is Escherichia coli CCARM 1238.
Test [19] has as its system Trichosporon beigelii KCTC 7707.
Test [20] concerns Pseudomonas aeruginosa 4891.
Test [21] concerns Staphylococcus aureus CCARM 3518.
The subject of test [22] is Candida albicans KCTC 7270.
In test [23] the test system is Pseudomonas aeruginosa 4007.
Test [24] relates to Staphylococcus aureus CCARM 3090.
Test [25] concerns Bacillus licheniformis VK21.
Test [26] has as its system Micrococcus luteus VKM B-1314.
For test [27], the system named is Staphylococcus aureus ATCC 29213.
For test [28], the system named is Bacillus megaterium VKM41.
Test [29] relates to Bacillus subtilis VKM B-886.
Test [30] relates to Pseudomonas aeruginosa PAO1.
Test [31] has as its system Staphylococcus aureus 209P.
The test system of test [32] is Escherichia coli BL21(DE3).
The test system of test [33] is Escherichia coli ATCC 25922.
The test system of test [34] is Staphylococcus aureus LAC.

Molecules are shown by their SMILES. Converted amounts (≈) assume the structure as drawn. Where only a bound is given, the exact number is not on record here.

By MIC is commonly meant the smallest concentration in the dilution series that meets the test's criterion for growth inhibition. High values mean a need for much substance, low ones inhibition by little substance. On to `CC(C)C[C@H](NC(=O)[C@H](Cc1ccccc1)NC(=O)[C@H](CCCN=C(N)N)NC(=O)[C@@H]1CCCN1C(=O)[C@H](C)NC(=O)[C@H](Cc1c[nH]c2ccccc12)NC(=O)[C@H](Cc1c[nH]c2ccccc12)NC(=O)[C@H](C)NC(=O)[C@H](CCCN=C(N)N)NC(=O)[C@H](Cc1ccccc1)NC(=O)[C@H](Cc1ccccc1)NC(=O)[C@H](CCCCN)NC(=O)[C@@H](N)CCCCN)C(=O)N[C@@H](CCCCN)C(N)=O` [KKFFRAWWAPRFLK], for which the minimum inhibitory concentration (MIC) against Aspergillus niger turned out to be 26.6 µM (≈ 50 µg/mL); in the test with Penicillium expansum, 13.3 µM (≈ 25 µg/mL).
With `CC[C@H](C)[C@H](NC(=O)[C@H](CC(C)C)NC(=O)[C@H](CC(C)C)NC(=O)[C@@H](N)CC(C)C)C(=O)N[C@H](C(=O)N[C@@H](CC(C)C)C(=O)N[C@@H](CCCN=C(N)N)C(=O)N[C@@H](CCCCN)C(=O)N[C@@H](CCCCN)C(N)=O)C(C)C` [LLLIVLRKK], the MIC in test [1] worked out at 1.83 µM (≈ 2 µg/mL); in test [2] it was 3.65 µM (≈ 4 µg/mL); in test [3] it was 7.3 µM (≈ 7.99 µg/mL); in [4], 1.83 µM (≈ 2 µg/mL); in test [5], 0.913 µM (≈ 0.999 µg/mL); in test [6], 3.65 µM (≈ 4 µg/mL). For the same compound, the MIC in [7] came to 3.65 µM (≈ 4 µg/mL); in [8] it was 3.65 µM (≈ 4 µg/mL); in test [9], 3.65 µM (≈ 4 µg/mL); in test [10], 3.65 µM (≈ 4 µg/mL); in test [11], 1.83 µM (≈ 2 µg/mL).
For the compound `CC[C@H](C)[C@H](NC(=O)[C@H](Cc1ccc(O)cc1)NC(=O)[C@H](Cc1ccc(O)cc1)NC(=O)[C@H](CO)NC(=O)CNC(=O)CNC(=O)[C@H](CC(N)=O)NC(=O)[C@H](CCCN=C(N)N)NC(=O)[C@H](CC(C)C)NC(=O)[C@H](Cc1ccccc1)NC(=O)[C@H](CC(N)=O)NC(=O)CN)C(=O)N[C@H](C(=O)N1CCC[C@H]1C(=O)N[C@@H](C)C(=O)N[C@@H](Cc1ccccc1)C(=O)N[C@@H](CCCN=C(N)N)C(=O)NCC(=O)O)C(C)C` [GNFLRNGGSYYIVPAFRG], the MIC in test [12] is 30 µM (≈ 59.6 µg/mL); in test [13], 30 µM (≈ 59.6 µg/mL); in test [14], above 30 µM; in test [15], 30 µM (≈ 59.6 µg/mL); in [16] it was 30 µM (≈ 59.6 µg/mL).
Turning to `CC[C@H](C)[C@H](NC(=O)[C@H](C)NC(=O)[C@H](CCC(=O)O)NC(=O)[C@H](Cc1cnc[nH]1)NC(=O)[C@@H](NC(=O)[C@H](CCCCN)NC(=O)[C@H](CCC(N)=O)NC(=O)[C@H](Cc1ccccc1)NC(=O)[C@@H](NC(=O)[C@H](CCCCN)NC(=O)[C@H](CCCCN)NC(=O)[C@H](CC(C)C)NC(=O)[C@H](C)NC(=O)[C@H](CC(N)=O)NC(=O)[C@H](CC(C)C)NC(=O)CN)C(C)C)[C@@H](C)CC)C(=O)N[C@@H](CCCCN)C(=O)N[C@@H](CC(C)C)C(=O)N[C@H](C(=O)N[C@@H](CC(N)=O)C(=O)N[C@@H](CC(N)=O)C(=O)N[C@@H](Cc1cnc[nH]1)C(=O)N[C@H](C(=O)N[C@@H](CCC(N)=O)C(N)=O)C(C)C)[C@@H](C)CC` [GLNALKKVFQKIHEAIKLINNHVQ], the MIC in [17] is 2 µM (≈ 5.51 µg/mL); in [18] it was 2 µM (≈ 5.51 µg/mL); in test [19] it was at least 32 µM; in [20] it was 4 µM (≈ 11 µg/mL); in test [21], 4 µM (≈ 11 µg/mL); in test [22] it was at least 32 µM. Also, the values for the MIC in test [23] and in test [24] were 2 µM (≈ 5.51 µg/mL) and 4 µM (≈ 11 µg/mL), respectively.
With `CC[C@H](C)[C@H](NC(=O)[C@H](C)NC(=O)[C@@H](NC(=O)CNC(=O)[C@@H](NC(=O)[C@H](CC(N)=O)NC(=O)[C@H](CCCCN)NC(=O)[C@H](C)NC(=O)CNC(=O)[C@H](CC(=O)O)NC(=O)[C@H](Cc1c[nH]c2ccccc12)NC(=O)[C@@H](NC(=O)[C@H](CO)NC(=O)[C@H](CO)NC(=O)[C@H](Cc1c[nH]c2ccccc12)NC(=O)[C@H](Cc1ccccc1)NC(=O)CN)C(C)C)C(C)C)[C@@H](C)O)C(=O)O` [GFWSSVWDGAKNVGTAI], the MIC in [25] was 16 µM (≈ 28.7 µg/mL); in [26], 16 µM (≈ 28.7 µg/mL); in test [27] it was above 16 µM; against Escherichia coli ML-35p, at least 64 µM; in [28] it was 16 µM (≈ 28.7 µg/mL); in test [29], 16 µM (≈ 28.7 µg/mL). Moreover, the MIC in test [30] is above 64 µM; against Acinetobacter baumannii it was at least 64 µM; in [31] it was 16 µM (≈ 28.7 µg/mL); in the test with Escherichia coli C600 it was at least 64 µM; in test [32] it was at least 64 µM.
With `NC(N)=NCCC[C@H](NC(=O)[C@H](CCCN=C(N)N)NC(=O)[C@H](CCCN=C(N)N)NC(=O)[C@H](CCCN=C(N)N)NC(=O)[C@H](Cc1ccccc1)NC(=O)[C@H](Cc1ccccc1)NC(=O)[C@H](Cc1ccccc1)NC(=O)[C@@H](N)Cc1ccccc1)C(=O)O` [FFFFRRRR], the figures for the MIC in [33] and in test [34] were above 104 µM and at least 104 µM, respectively.
